# Measurements reported in publication PMC3492916 (Molecular Nutrition & Food Research, 2011).
# Entries after “also recorded” stand apart in the source; their conditions may differ.
# Legend:
# [1] = target: T1, BCRP/ABCG2 (Sus scrofa, UniProt Q8MIB3); assay: Active transport study with inhibitor Fumitremorgin C; format: in vitro ADME, porcine
# T1 sequence (Q8MIB3 1-656): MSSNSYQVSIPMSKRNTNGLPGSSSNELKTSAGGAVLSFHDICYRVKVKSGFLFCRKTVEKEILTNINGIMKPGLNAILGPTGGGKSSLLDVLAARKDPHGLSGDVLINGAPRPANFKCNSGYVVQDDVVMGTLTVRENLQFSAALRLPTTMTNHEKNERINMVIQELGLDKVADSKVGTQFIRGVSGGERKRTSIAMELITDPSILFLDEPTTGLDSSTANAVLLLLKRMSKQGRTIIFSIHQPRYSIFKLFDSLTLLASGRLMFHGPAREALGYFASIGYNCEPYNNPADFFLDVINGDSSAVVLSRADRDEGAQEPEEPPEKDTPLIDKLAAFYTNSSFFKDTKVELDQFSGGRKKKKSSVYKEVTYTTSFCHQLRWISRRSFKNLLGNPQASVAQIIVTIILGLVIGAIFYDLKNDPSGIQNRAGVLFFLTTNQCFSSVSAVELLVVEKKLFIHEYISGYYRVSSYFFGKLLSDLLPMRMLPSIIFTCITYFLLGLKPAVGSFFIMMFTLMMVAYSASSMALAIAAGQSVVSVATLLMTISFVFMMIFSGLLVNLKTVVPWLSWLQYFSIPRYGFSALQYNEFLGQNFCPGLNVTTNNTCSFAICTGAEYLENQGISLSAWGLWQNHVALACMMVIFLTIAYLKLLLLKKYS
# [2] = test system: PBCEC; assay: Cytotoxicity; format: cell-based, porcine; conditions: 24 h; for Impact on cell viability (CCK-8 assay): up to a concentration of 20 mM (so in the source), with corresponding -inine form
# [3] = test system: PBCEC monolayer; assay: TEER measurement; format: cell-based, porcine; conditions: for Influence on barrier integrity (TEER): 10 μM (a) or 10 μM (a/b), in comparison to the control
# [4] = test system: PBCEC; assay: Fluorescence microscopy of occludin and cell nuclei; format: cell-based, porcine; conditions: 10 μM a/b, 24 h
# [5] = Active transport study, equal concentrations in both compartments; conditions: pig, PBCEC monolayers
# [6] = test system: PBCEC monolayers; assay: as above; conditions: for Enrichment of substance concentration in one compartment: ET 10 μM, EC 1 μM a/b, over 48 h
# [7] = Permeability across PBCEC monolayers on Transwell filters; conditions: pig
# [8] = test system: PBCEC monolayers; assay: as above; conditions: apical addition; for Time of maximum of permeation into basolateral compartment / Maximum of permeation into basolateral compartment: EM and ET 10 μM, EC 1 μM; for Maximum of permeation into basolateral compartment: t = 0 h as 100%
# [9] = cited from earlier work
# [10] = test system: Pgp; conditions: cited from earlier work
# [11] = target: P-glycoprotein (Sus scrofa, UniProt K7GMM7); assay: Active transport study with inhibitor PSC 833; format: in vitro ADME, porcine
# Sequence of P-glycoprotein (K7GMM7 1-1248): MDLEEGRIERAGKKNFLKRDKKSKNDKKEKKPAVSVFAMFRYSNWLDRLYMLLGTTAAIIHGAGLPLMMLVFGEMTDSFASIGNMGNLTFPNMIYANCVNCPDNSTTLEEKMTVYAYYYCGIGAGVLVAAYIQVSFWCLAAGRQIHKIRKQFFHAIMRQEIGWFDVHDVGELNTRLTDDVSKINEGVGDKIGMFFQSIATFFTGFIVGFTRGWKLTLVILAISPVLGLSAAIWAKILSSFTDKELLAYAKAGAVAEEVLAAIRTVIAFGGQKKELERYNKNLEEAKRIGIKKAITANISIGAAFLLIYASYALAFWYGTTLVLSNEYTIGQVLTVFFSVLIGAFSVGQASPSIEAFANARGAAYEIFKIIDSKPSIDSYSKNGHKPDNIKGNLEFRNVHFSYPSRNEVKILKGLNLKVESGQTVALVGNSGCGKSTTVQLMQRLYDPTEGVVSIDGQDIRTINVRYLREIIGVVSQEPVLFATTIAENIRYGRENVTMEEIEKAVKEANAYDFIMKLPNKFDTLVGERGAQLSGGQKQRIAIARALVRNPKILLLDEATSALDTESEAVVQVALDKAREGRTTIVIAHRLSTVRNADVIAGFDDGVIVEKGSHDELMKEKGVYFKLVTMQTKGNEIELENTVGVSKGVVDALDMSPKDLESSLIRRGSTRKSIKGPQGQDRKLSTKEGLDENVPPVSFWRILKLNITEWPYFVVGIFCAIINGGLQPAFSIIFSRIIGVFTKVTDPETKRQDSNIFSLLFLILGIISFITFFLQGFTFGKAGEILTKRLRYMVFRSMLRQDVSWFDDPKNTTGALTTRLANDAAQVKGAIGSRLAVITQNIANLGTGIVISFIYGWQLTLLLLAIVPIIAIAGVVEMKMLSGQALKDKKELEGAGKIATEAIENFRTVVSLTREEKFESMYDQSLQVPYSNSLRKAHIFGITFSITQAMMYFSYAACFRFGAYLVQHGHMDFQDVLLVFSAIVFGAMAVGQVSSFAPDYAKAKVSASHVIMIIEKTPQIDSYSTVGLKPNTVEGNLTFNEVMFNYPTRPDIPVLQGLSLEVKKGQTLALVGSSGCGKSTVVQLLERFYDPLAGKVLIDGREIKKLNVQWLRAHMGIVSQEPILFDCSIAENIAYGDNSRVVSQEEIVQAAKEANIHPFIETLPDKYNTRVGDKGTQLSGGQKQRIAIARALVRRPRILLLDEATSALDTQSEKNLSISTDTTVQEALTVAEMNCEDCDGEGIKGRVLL
# [12] = test system: Caco-2; conditions: Caco-2 model, after 6 h; cited from earlier work
# [13] = 10 μM inhibitor a/b, preincubated 1 h, EM 10 μM a/b
compound,measurement,setting,value
"COc1ccc2c3c([nH]c2c1)[C@H](C=C(C)C)N1C(=O)[C@@H]2CCCN2C(=O)[C@@H]1C3 [FTC, Fumitremorgin C]",Influence of inhibitor on the transport of EM,[1]; [13],total inhibition of the transport process
"CC(C)[C@@]1(NC(=O)[C@@H]2C=C3c4cccc5[nH]cc(c45)C[C@H]3N(C)C2)O[C@@]2(O)[C@@H]3CCCN3C(=O)[C@H](Cc3ccccc3)N2C1=O [EC, ergocristine]",Concentration at which significant differences in cell viability start,[2]; CCK-8,5 µM
same,Concentration at which significant results in cell viability start,"[2]; CCK-8, Figure 2 legend",5000 µM
same,Cell viability (CCK-8 assay),"[2]; from 5 μM, in equilibrium with -inine form",85 % of the control
same,Effect on barrier integrity (TEER),[3]; 1 μM (a),no effect
same,"TEER, % of initial TEER",[3]; 1 μM (a/b),about 80%
same,"TEER, % of initial TEER",[3]; 5 μM (a),about 80%
same,"TEER, % of the starting value",[3]; 5 μM (a/b),50–70%
same,"TEER, % of the starting value",[3]; 5 μM (b),50–70%
same,"TEER, % of the starting value",[3]; 10 μM (a),50–70%
same,"TEER, % of the starting value",[3]; 10 μM (b),50–70%
same,TEER of incubated samples,"[3]; 10 mM (so in the source) a/b, 24 h, samples of immunostaining, control >1000",< 200 Ωcm^2
same,Immunostaining of occludin and cell nuclei,[4],disrupted cells could be visualized by the absence of nuclei
same,"recovery at 48 h, 1 µM",[5],60%
same,Enrichment of substance concentration in one compartment,[6],no enrichment
same,Papp A→B,[7],20.5 ×10⁻⁶ cm/s
same,Papp B→A,[7],26.1 ×10⁻⁶ cm/s
same,Concentration in basolateral compartment,"[8]; 1 μM, after 24 h",32%
same,Time of maximum of permeation into basolateral compartment,[8],6 h
same,Maximum of permeation into basolateral compartment,[8],49%
"CN1C[C@H](C(=O)N[C@]2(C)O[C@@]3(O)[C@@H]4CCCN4C(=O)[C@H](Cc4ccccc4)N3C2=O)C=C2c3cccc4[nH]cc(c34)C[C@H]21 [ET, ergotamine]",Impact on cell viability (CCK-8 assay),[2],no impact
same,Influence on barrier integrity (TEER),"[3]; 1 μM (a), 24 h",No influence; also recorded: no impact on barrier integrity
same,Detection in CSF,"[9]; 18 patients, different application methods",no ergotamine in CSF
same,Oral bioavailability,"[9]; humans, peptide ergot alkaloids like ergotamine",less than 2%
same,Concentration in cerebrospinal fluid (CSF),[9]; ten patients,0.4 ng/mL
same,Pgp inhibition,[10],Pgp inhibitors
same,Enrichment of substance concentration in one compartment,[6],no enrichment
same,Papp A→B,[7],11.9 ×10⁻⁶ cm/s
same,Papp B→A,[7],18 ×10⁻⁶ cm/s
same,"efflux ratio at 24 h, 10 μM",[7],< 2
same,Time of maximum of permeation into basolateral compartment,[8],12 h
same,Maximum of permeation into basolateral compartment,[8],40%
"C/C=C/C[C@@H](C)C(=O)[C@H]1C(=O)N[C@@H](C(C)C)C(=O)N(C)CC(=O)N(C)[C@@H](CC(C)C)C(=O)N[C@@H](C(C)C)C(=O)N(C)[C@@H](CC(C)C)C(=O)N[C@@H](C)C(=O)N[C@H](C)C(=O)N(C)[C@@H](CC(C)C)C(=O)N(C)[C@@H](CC(C)C)C(=O)N(C)[C@@H](C(C)C)C(=O)N1C [PSC, PSC 833]",Influence of inhibitor on the transport of EM,[11]; [13],lagging of enrichment in the apical compartment
"C[C@@H](CO)NC(=O)[C@@H]1C=C2c3cccc4[nH]cc(c34)C[C@H]2N(C)C1 [EM, ergometrine]",Impact on cell viability (CCK-8 assay),[2],no impact
same,Influence on barrier integrity (TEER),"[3]; 1 μM (a), 24 h",No influence; also recorded: no impact on barrier integrity
same,"Concentration in apical compartment, % of the initial concentration","[11]; EM 10 μM a/b with PSC 833 10 μM a/b, after 48 h",110%
same,Transporter substrate property,[1]; concluded from total inhibition by FTC,substrate for BCRP/ABCG2 transporter
same,Pgp inhibition,[10],Pgp inhibitors
same,"Concentration in apical compartment, % of the initial concentration","[6]; 10 μM a/b, after 24 h",about 117%
same,Total enrichment in apical compartment,"[6]; 10 μM a/b, after 48 h",130%
same,Substance in cell lysate,"[6]; 10 μM a/b, during the whole experiment (48 h)",no EM was detectable in cell lysate
same,Papp A→B,[7],1.05 ×10⁻⁶ cm/s
same,Papp B→A,[7],6.05 ×10⁻⁶ cm/s
same,Time before which first traces were not detectable in basolateral compartment,[8]; 10 μM,≥ 6 h
same,Time of maximum of permeation into basolateral compartment,[8],24 h
same,Maximum of permeation into basolateral compartment,[8],29%
ergovaline/ ergovalinine,Initial concentration reaching the other compartment,[12],40%
